The target in the experiment is S-adenosylmethionine synthetase (MAT, cMAT) (Escherichia coli, UniProt P0A817). As to the kind of experiment: […]-methionine incorporation into AdoMet with purified enzyme. Type of experiment: biochemical.
Chain of S-adenosylmethionine synthetase (MAT, cMAT) (P0A817 2-384): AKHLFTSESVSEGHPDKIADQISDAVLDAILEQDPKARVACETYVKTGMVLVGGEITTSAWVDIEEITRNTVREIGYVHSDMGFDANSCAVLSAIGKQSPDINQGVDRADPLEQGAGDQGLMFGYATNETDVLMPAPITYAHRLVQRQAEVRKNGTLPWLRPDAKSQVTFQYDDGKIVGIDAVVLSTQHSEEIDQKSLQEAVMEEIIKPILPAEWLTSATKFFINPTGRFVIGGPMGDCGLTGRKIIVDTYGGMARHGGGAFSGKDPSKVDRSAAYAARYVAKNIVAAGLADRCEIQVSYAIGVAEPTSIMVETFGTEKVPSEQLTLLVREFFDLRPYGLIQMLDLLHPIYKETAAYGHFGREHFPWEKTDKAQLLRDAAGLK

Usually Ki stands for the equilibrium dissociation constant of an inhibitor or competing ligand from its target. A high value points to weaker binding. Turning to `CCOc1ccccc1NC(=O)NCC(=O)NNC(=O)Nc1cc([N+](=O)[O-])ccc1C` [compound 1, 1-(3-(2-ethoxyphenyl)ureidoacetyl)-4-(2-methyl-5-nitrophenyl)semicarbazide], the inhibitory constant (Ki) amounted to 1.9 ± 0.8 nM.
